In patent US6140362A, “Method for inhibiting the growth of mammalian cells” (Rohm and Haas Company, priority 1997, dated 2000):
Read-outs that look alike come from different tables or passages of the source.

How the values were obtained:
[1] = system: mouse lymphoma cell line L5178Y; experiment: Growth inhibition of mouse lymphoma cells (L5178Y), 48 h; assay type: cell-based; settings: for inhibition at 2 µM: 2 micromolar; for inhibition at 20 µM: 20 micromolar; for inhibition at 10 µM: read-out: Inhibition of growth; for inhibition at 50 µM: 50 micromolar; for inhibition at 4 µM: 4 micromolar
Protocol: Effects of compounds on growth of mouse lymphoma cell line L5178Y, were determined as follows. Cells were grown in Fischer's medium (obtained from Life Technologies, Inc., Gaithersburg, Md.) containing 0.24 grams per liter (g/l) sodium pyruvate, 1.12 g/l surfactant (Pluronic F-68, from BASF Corporation, Parsippany, N.J.), and 10% by volume (10% v/v) heat-inactivated horse serum (obtained from Life Technologies, Inc) at 37° C. To 30 ml aliquots of cell suspension (2×10^4 cells per milliliter (mL)) in exponential growth phase were added test compounds dissolved in dimethylsulfoxide (DMSO) at various concentrations such that the final DMSO concentration in the mixtures was 0.25%. Tubes were gassed with 5% CO2 then incubated on a roller drum apparatus. After 48 hours the cells were treated with 0.1% trypsin (Life Technologies, Inc.,) for 10 minutes and counted in a Coulter Counter equipped with a 140 micrometer (μM) aperture. Percent inhibition of growth was calculated by comparing the number of cells in assays containing test compound with the number of cells in controls lacking the test compound.

Ovarian cancer (OVCAR8) = experiment: Growth inhibition of human tumor cell lines: Ovarian cancer (OVCAR8); assay type: cell-based; settings: OVCAR-8, cell line G = Ovarian cancer (OVCAR8), NCI testing
Protocol: (§1) Selected compounds were evaluated by the National Cancer Institute, Bethesda, Md. against 60 human tumor cell lines according to procedures described in Principles and Practices of Oncology, volume 3, issue number 10, pp. 1-12. Results of the testing against representative cell lines including the test compound number, and the GI50 values (μM) are set forth in Table 3. The GI50 value is the concentration required to inhibit cell growth by 50% as compared to untreated control cultures.

CNS cancer (SF539) = experiment: Growth inhibition of human tumor cell lines: CNS cancer (SF539); assay type: cell-based; settings: SF-539, cell line E = CNS cancer (SF539), NCI testing
Protocol: as §1

tubulin = experiment: Inhibition of microtubule assembly; assay type: biochemical, calf; settings: preincubated 1 h at 37° C.
Protocol: Compounds were evaluated for their ability to inhibit tubulin assembly into microtubules by comparing the extent of cold-reversible assembly in the presence of each test compound with controls lacking the test compound. Tubulin was isolated from calf brain tissue by two cycles of assembly/disassembly as described by Vallee, R. B. in Methods in Enzymology, vol. 134, pp. 89-104. Assay mixtures contained 1 mg/ml of purified tubulin in 1 M sodium glutamate, pH 6.6, 1 millimolar (mM) MgCl2, and the test compound, which was added as a solution in DMSO. The final concentration of DMSO in each assay was 2% (v/v). Assay mixtures were preincubated at 37° C. for 1 h, then chilled on ice for 5 min. Microtubule assembly was initiated by addition of guanosine triphosphate (0.1 mM), and incubation at 37° C. Assembly was followed turbidimetrically at 350 nm for 20 minutes (min) using a temperature-controlled cell in a Cary 2200 spectrophotometer. Since microtubules undergo depolymerization at 0° C., assembly was confirmed by measuring the reduction in turbidity following incubation for 30 min at 0° C. The difference in absorbance before and after incubation for 30 min at 0° C. (ΔA350) represents the extent of microtubule assembly. Inhibition of assembly was calculated by subtracting the (ΔA350) values for treatments with test compounds from the (ΔA350) for controls without test compound, and expressing this difference as a percentage of the (ΔA350) value for the control. Results including test compound number, test compound concentration in micromoles per liter (μM) and percent inhibition are set forth in Table 11.

Colon cancer (HCT116) = experiment: Growth inhibition of human tumor cell lines: Colon cancer (HCT116); assay type: cell-based; settings: HCT-116, cell line D = Colon cancer (HCT116), NCI testing
Protocol: as §1

Leukemia (SR) = experiment: Growth inhibition of human tumor cell lines: Leukemia (SR); assay type: cell-based; settings: cell line A = Leukemia (SR), NCI testing
Protocol: as §1

Renal cancer (CAKI1) = experiment: Growth inhibition of human tumor cell lines: Renal cancer (CAKI1); assay type: cell-based; settings: CAKI-1, cell line H = Renal cancer (CAKI1), NCI testing
Protocol: as §1

Melanoma (SKMEL-2) = experiment: Growth inhibition of human tumor cell lines: Melanoma (SKMEL-2); assay type: cell-based; settings: SK-MEL-2, cell line F = Melanoma (SKMEL-2), NCI testing
Protocol: as §1

[2] = system: Small cell lung cancer (DMS 114); experiment: Growth inhibition of human tumor cell lines: Small cell lung cancer (DMS 114); assay type: cell-based; settings: cell line C = Small cell lung cancer (DMS 114), NCI testing
Protocol: as §1

[3] = system: Nonsmall cell lung cancer (NCIH522); experiment: Growth inhibition of human tumor cell lines: Nonsmall cell lung cancer (NCIH522); assay type: cell-based; settings: NCI-H522, cell line B = Nonsmall cell lung cancer (NCIH522), NCI testing
Protocol: as §1

CC(C)CC(C)(NC(=O)c1cc(Cl)cc(Cl)c1)C(=O)C(Br)Br (centres unmarked) [Compound 9]
inhibition at 2 µM ([1]; 48 hours): 97%

CCC(C)(NC(=O)c1cc(Cl)c(F)c(Cl)c1)C(=O)CCl (centres unmarked) [Compound 31]
inhibition at 20 µM ([1]; 48 hours): 97%

CCC(C)(NC(=O)c1cccc(C=NOC)c1)C(=O)CCl (centres unmarked) [Compound 24]
inhibition at 10 µM ([1]; 10 micromolar, 48 hours): 96%

CC(C)(NC(=O)c1cc(Cl)cc(Cl)c1)C(=O)C(Cl)Br (centres unmarked) [Compound 15]
GI50 (Ovarian cancer (OVCAR8)): 12.1 µM
GI50 (CNS cancer (SF539)): 10.8 µM
Percent inhibition of microtubule assembly (tubulin; 50 μM): 94.6%
GI50 (Colon cancer (HCT116)): 10.4 µM
inhibition at 2 µM ([1]; 48 hours): 90%
GI50 (Leukemia (SR)): 2.85 µM
GI50 (Renal cancer (CAKI1)): 10.8 µM
GI50 (Melanoma (SKMEL-2)): 16.6 µM
GI50 [2]: 6.65 µM
GI50 [3]: 1.29 µM

CC(C)(NC(=O)c1ccccc1)C(=O)CCl [Compound 39]
inhibition at 50 µM ([1]; 48 hours): 96%

CC(C)C(C)(NC(=O)c1cc(Cl)cc(Cl)c1)C(=O)C(Br)Br (centres unmarked) [Compound 8]
inhibition at 2 µM ([1]; 48 hours): 83%

CCC(C)(NC(=O)c1cc(Cl)c2ncoc2c1)C(=O)CCl (centres unmarked) [Compound 56]
inhibition at 10 µM ([1]; 10 micromolar, 48 hours): 81%

CCC(C)(NC(=O)c1ccc(Br)o1)C(=O)C(Br)Br (centres unmarked) [Compound 50]
inhibition at 10 µM ([1]; 10 micromolar, 48 hours): 95%

CC(C)(NC(=O)c1cc(Cl)cc(Cl)c1)C(=O)C(Cl)Cl [Compound 40]
inhibition at 50 µM ([1]; 48 hours): 92%

CC(C)(NC(=O)C1CCCCC1)C(=O)CCl [Compound 58]
inhibition at 50 µM ([1]; 48 hours): 77%

CCC(C)(NC(=O)c1cccc(NC(=O)OC)c1)C(=O)CCl (centres unmarked) [Compound 22]
inhibition at 10 µM ([1]; 10 micromolar, 48 hours): 96%

CC(C)(NC(=O)c1cc(Cl)sc1Cl)C(=O)CCl [Compound 52]
inhibition at 20 µM ([1]; 48 hours): 89%

CCC(C)(NC(=O)c1cc(Cl)c2nc(C)oc2c1)C(=O)CCl (centres unmarked) [Compound 57]
inhibition at 10 µM ([1]; 10 micromolar, 48 hours): 97%

CC(C)(NC(=O)C(Cl)(Cl)Cl)C(=O)C(Br)Br [Compound 60]
inhibition at 2 µM ([1]; 48 hours): 98%

CCC(C)(NC(=O)c1cccc(Cl)c1)C(=O)CCl (centres unmarked) [Compound 35]
Percent inhibition of microtubule assembly (tubulin; 50 μM): 17.9%
inhibition at 20 µM ([1]; 48 hours): 95%

CCC(CC)(NC(=O)c1cc(Cl)cc(Cl)c1)C(=O)C(Br)Br [Compound 12]
inhibition at 2 µM ([1]; 48 hours): 85%

CCCC(C)(NC(=O)c1cc(Cl)cc(Cl)c1)C(=O)C(Br)Br (centres unmarked) [Compound 11]
inhibition at 2 µM ([1]; 48 hours): 88%

CC(C)(NC(=O)c1cc(Br)c(Br)s1)C(=O)CCl [Compound 47]
inhibition at 20 µM ([1]; 48 hours): 96%

CCC(C)(NC(=O)c1cc(Br)c(C)c(Br)c1)C(=O)CCl (centres unmarked) [Compound 21]
inhibition at 4 µM ([1]; 48 hours): 97%

CC(C)C(C)(NC(=O)c1cc(Cl)cc(Cl)c1)C(=O)CCl (centres unmarked) [Compound 38]
inhibition at 50 µM ([1]; 48 hours): 66%

CC(C)(NC(=O)c1cc(Cl)nc(Cl)c1)C(=O)CCl [Compound 43]
inhibition at 4 µM ([1]; 48 hours): 92%

CCC(C)(NC(=O)c1cc(C)cc(Cl)c1)C(=O)CCl (centres unmarked) [Compound 25]
Percent inhibition of microtubule assembly (tubulin; 50 μM): 30.9%
inhibition at 10 µM ([1]; 10 micromolar, 48 hours): 95%

CCCCCC(C)(NC(=O)c1cc(Cl)cc(Cl)c1)C(=O)C(Br)Br (centres unmarked) [Compound 10]
inhibition at 2 µM ([1]; 48 hours): 96%

CCC(C)(NC(=O)c1cc(Cl)cc(Br)c1)C(=O)C(Br)Br (centres unmarked) [Compound 41]
Percent inhibition of microtubule assembly (tubulin; 5 μM): 76.0%

CCC(C)(NC(=O)c1cc(Cl)c(Cl)c(Cl)c1)C(=O)CCl (centres unmarked) [Compound 33]
Percent inhibition of microtubule assembly (tubulin; 50 μM): 12.2%
inhibition at 20 µM ([1]; 48 hours): 94%

CCC(C)(NC(=O)c1ccc(Cl)nc1)C(=O)CCl (centres unmarked) [Compound 46]
inhibition at 50 µM ([1]; 48 hours): 84%

CC(C)(NC(=O)c1cc(Cl)nc(Cl)c1)C(=O)C(Br)Br [Compound 42]
inhibition at 2 µM ([1]; 48 hours): 98%

CCC(C)(NC(=O)c1cc(F)c(F)c(F)c1)C(=O)CCl (centres unmarked) [Compound 37]
inhibition at 50 µM ([1]; 48 hours): 96%

CCC(C)(NC(=O)c1cc(Cl)c(C)c(Cl)c1)C(=O)CCl (centres unmarked) [Compound 32]
inhibition at 20 µM ([1]; 48 hours): 96%

CCC(C)(NC(=O)c1cccnc1)C(=O)CCl (centres unmarked) [Compound 45]
inhibition at 50 µM ([1]; 48 hours): 36%

CC(C)(NC(=O)C(Cl)(Cl)Cl)C(=O)CCl [Compound 59]
inhibition at 4 µM ([1]; 48 hours): 91%

CC(C)(NC(=O)c1cccs1)C(=O)CCl [Compound 51]
inhibition at 50 µM ([1]; 48 hours): 95%

CCC(C)(NC(=O)c1ccccc1)C(=O)CCl (centres unmarked) [Compound 36]
inhibition at 50 µM ([1]; 48 hours): 91%

CC(C)(NC(=O)c1cccs1)C(=O)C(Br)Br [Compound 49]
inhibition at 2 µM ([1]; 48 hours): 97%

CCC(C)(NC(=O)c1cc(F)cc(F)c1)C(=O)CCl (centres unmarked) [Compound 34]
inhibition at 20 µM ([1]; 48 hours): 88%

CCC(C)(NC(=O)c1ccc(NC(=O)OC)cc1)C(=O)CCl (centres unmarked) [Compound 1]
inhibition at 2 µM ([1]; 48 hours): 92%

CC(C)(NC(=O)c1cc(Cl)cc(Cl)c1)C(=O)CN=C=S [Compound 27]
inhibition at 10 µM ([1]; 48 h): 61%

CCC(C)(NC(=O)c1cccc(C#N)c1)C(=O)CCl (centres unmarked) [Compound 20]
inhibition at 4 µM ([1]; 48 hours): 96%

CCC(C)(NC(=O)c1ccc(C)s1)C(=O)CCl (centres unmarked) [Compound 48]
inhibition at 50 µM ([1]; 48 hours): 97%

CCC(C)(NC(=O)c1cc(Cl)c(N)c(C=NOC)c1)C(=O)CCl (centres unmarked) [Compound 18, 4-amino-3-chloro-5-methoxyiminomethyl-N-(3-chloro-1-ethyl-1-methyl-2-oxopropyl)benzamide]
inhibition at 2 µM ([1]; 48 hours): 94%

CCC(C)(NC(=O)c1cc(C)cc(Br)c1)C(=O)CCl (centres unmarked) [Compound 5]
Percent inhibition of microtubule assembly (tubulin; 50 μM): 88.7%
inhibition at 2 µM ([1]; 48 hours): 91%

CCC(C)(NC(=O)c1ccc2ncsc2c1)C(=O)CCl (centres unmarked) [Compound 55]
inhibition at 10 µM ([1]; 10 micromolar, 48 hours): 97%

CC(C)(NC(=O)c1ccccc1)C(=O)C(Br)Br [Compound 16]
inhibition at 2 µM ([1]; 48 hours): 98%

CCC(C)(NC(=O)c1cc(Cl)cc(C#N)c1)C(=O)CCl (centres unmarked) [Compound 3]
inhibition at 2 µM ([1]; 48 hours): 94%

CCC(C)(NC(=O)c1cc(Cl)c(C)c(Br)c1)C(=O)CCl (centres unmarked) [Compound 30]
inhibition at 20 µM ([1]; 48 hours): 97%

CCCC(NC(=O)c1cc(Cl)cc(Cl)c1)C(=O)C(Br)Br (centres unmarked) [Compound 6]
inhibition at 2 µM ([1]; 48 hours): 75%

CCC(C)(NC(=O)c1ccc2ncoc2c1)C(=O)CCl (centres unmarked) [Compound 53]
inhibition at 50 µM ([1]; 48 hours): 95%

CC(C)(NC(=O)c1cc(Cl)cc(Cl)c1)C(=O)CBr [Compound 29]
inhibition at 10 µM ([1]; 10 micromolar, 48 hours): 95%

CCC(C)(NC(=O)c1ccc2ocnc2c1)C(=O)CCl (centres unmarked) [Compound 54]
inhibition at 50 µM ([1]; 48 hours): 36%
